In US20070128217A1 (priority 2003, published 2007):

Columns and labels:
[1] = test system: antibodies in sera from SARS patients (sera 1a, 1b, 2, 6, 37, 62, London, SARS-yellow, SARS-green); type: binding, human; parameters: Binding of serum 6 to linear peptides of protein X1 of SARS-CoV Urbani / Binding of serum 37 to linear peptides of protein X1 of SARS-CoV Urbani / Binding of serum 6 to looped/cyclic peptide (PEPSCAN-ELISA) / Binding of serum 37 to looped/cyclic peptide (PEPSCAN-ELISA) / Binding of serum 37 to looped/cyclic peptides of protein X1 of SARS-CoV Urbani / Binding of serum 6 to linear peptides of protein X2 / Binding of serum 37 to linear peptides of protein X2 / Binding of serum 37 to looped/cyclic peptides of protein X2 of SARS-CoV Urbani / Binding of serum 6 to linear peptides of protein M of SARS-CoV Urbani / Binding of serum 37 to linear peptides of protein M of SARS-CoV Urbani / Binding of serum 6 to looped/cyclic peptides of protein M of SARS-CoV Urbani / Binding of serum 37 to looped/cyclic peptides of protein M of SARS-CoV Urbani / Binding of serum 6 to linear peptides of protein X3 of SARS-CoV Urbani / Binding of serum 37 to linear peptides of protein X3 of SARS-CoV Urbani / Binding of serum 37 to looped/cyclic peptides of protein X3 of SARS-CoV Urbani / Binding of serum 6 to linear peptides of protein X4 of SARS-CoV Urbani / Binding of serum 37 to linear peptides of protein X4 of SARS-CoV Urbani / Binding of serum 37 to looped/cyclic peptides of protein X4 of SARS-CoV Urbani / Binding of serum 6 to linear peptides of protein X5 of SARS-CoV Urbani / Binding of serum 37 to linear peptides of protein X5 of SARS-CoV Urbani / Binding of serum 37 to looped/cyclic peptides of protein X5 of SARS-CoV Urbani / Binding of serum 6 to linear peptides of protein N of SARS-CoV Urbani / Binding of serum 37 to linear peptides of protein N of SARS-CoV Urbani / Binding of serum 6 to linear peptide (PEPSCAN-ELISA) / Binding of serum 1a to looped/cyclic peptides of protein N of SARS-CoV Urbani / Binding of serum 1b to looped/cyclic peptides of protein N of SARS-CoV Urbani / Binding of serum 2 to looped/cyclic peptides of protein N of SARS-CoV Urbani / Binding of serum 6 to looped/cyclic peptides of protein N of SARS-CoV Urbani / Binding of serum 37 to looped/cyclic peptides of protein N of SARS-CoV Urbani / Binding of serum 62 to looped/cyclic peptides of protein N of SARS-CoV Urbani / Binding of serum London to looped/cyclic peptides of protein N of SARS-CoV Urbani / Binding of serum SARS-green to looped/cyclic peptides of protein N of SARS-CoV Urbani: unit not given here
[2] = test system: control sera (pooled serum of ten healthy LUMC hospital workers; commercial negative donor pooled serum from the Dutch bloodbank); type: binding, human; parameters: Binding of Control serum LUMC to linear peptides / Binding of Control serum Blood-bank to linear peptides / Binding of Control serum LUMC to looped peptides / Binding of Control Serum Blood-Bank to Looped peptides / Binding of Control serum LUMC to linear peptides of the protein M of SARS-CoV Urbani / Binding of Control serum Blood-bank to linear peptides of the protein M of SARS-CoV Urbani / Binding of Control serum LUMC to looped peptides of the protein M of SARS-CoV Urbani / Binding of Control Serum Blood-Bank to Looped peptides of the protein M of SARS-CoV Urbani: unit not given here
[3] = test system: rabbit serum obtained by immunizing a rabbit with the SARS-CoV strain Frankfurt 1; type: binding; parameters: Binding of a rabbit serum to linear peptides / Binding of a rabbit serum to looped peptides / Rabbit serum linear peptides / Rabbit serum looped peptides / Binding of a rabbit serum to linear peptides of protein N of SARS-CoV Urbani (Rabbit serum linear peptides) / Binding of a rabbit serum to looped/cyclic peptides of protein N of SARS-CoV Urbani (Rabbit serum looped peptides): unit not given here

## TEVYYQLESTQITTD
[1]
  Binding of serum 1a to linear peptides of protein X1 of SARS-CoV Urbani: 0.8
  Binding of serum 1a to looped/cyclic peptides of protein X1 of SARS-CoV Urbani: 0.5
  Binding of serum 1b to linear peptides of protein X1 of SARS-CoV Urbani: 0.8
  Binding of serum 1b to looped/cyclic peptides of protein X1 of SARS-CoV Urbani: 0.5
  Binding of serum 2 to linear peptides of protein X1 of SARS-CoV Urbani: 0.5
  Binding of serum 2 to looped/cyclic peptides of protein X1 of SARS-CoV Urbani: 0.2
  Binding of serum 6 to linear peptides of protein X1 of SARS-CoV Urbani: 0.5
  Binding of serum 6 to looped/cyclic peptides of protein X1 of SARS-CoV Urbani: 0.3
  Binding of serum 37 to linear peptides of protein X1 of SARS-CoV Urbani: 0.9
  Binding of serum 37 to looped/cyclic peptides of protein X1 of SARS-CoV Urbani: 0.5
  Binding of serum 62 to linear peptides of protein X1 of SARS-CoV Urbani: 0.6
  Binding of serum 62 to looped/cyclic peptides of protein X1 of SARS-CoV Urbani: 0.4
  Binding of serum London to linear peptides of protein X1 of SARS-CoV Urbani: 0.4
  Binding of serum London to looped/cyclic peptides of protein X1 of SARS-CoV Urbani: 0.2
  Binding of serum SARS-green to linear peptides of protein X1 of SARS-CoV Urbani: 0.5
  Binding of serum SARS-green to looped/cyclic peptides of protein X1 of SARS-CoV Urbani: 0.3
  Binding of serum SARS-yellow to linear peptides of protein X1 of SARS-CoV Urbani: 0.6
  Binding of serum SARS-yellow to looped/cyclic peptides of protein X1 of SARS-CoV Urbani: 0.3
[2]
  Binding of Control Serum Blood-Bank to Looped peptides: 0.4
  Binding of Control serum Blood-bank to linear peptides: 0.5
  Binding of Control serum LUMC to linear peptides: 0.5
  Binding of Control serum LUMC to looped peptides: 0.4
[3]
  Binding of a rabbit serum to linear peptides: 0.1
  Binding of a rabbit serum to looped peptides: 0.4

## TGIENATFFIFNKLV
[1]
  Binding of serum 1a to linear peptides of protein X1 of SARS-CoV Urbani: 0.7
  Binding of serum 1a to looped/cyclic peptides of protein X1 of SARS-CoV Urbani: 0.6
  Binding of serum 1b to linear peptides of protein X1 of SARS-CoV Urbani: 0.5
  Binding of serum 1b to looped/cyclic peptides of protein X1 of SARS-CoV Urbani: 0.5
  Binding of serum 2 to linear peptides of protein X1 of SARS-CoV Urbani: 0.6
  Binding of serum 2 to looped/cyclic peptides of protein X1 of SARS-CoV Urbani: 0.6
  Binding of serum 6 to linear peptides of protein X1 of SARS-CoV Urbani: 0.5
  Binding of serum 6 to looped/cyclic peptides of protein X1 of SARS-CoV Urbani: 0.5
  Binding of serum 37 to linear peptides of protein X1 of SARS-CoV Urbani: 0.7
  Binding of serum 37 to looped/cyclic peptides of protein X1 of SARS-CoV Urbani: 0.7
  Binding of serum 62 to linear peptides of protein X1 of SARS-CoV Urbani: 0.7
  Binding of serum 62 to looped/cyclic peptides of protein X1 of SARS-CoV Urbani: 0.7
  Binding of serum London to linear peptides of protein X1 of SARS-CoV Urbani: 0.3
  Binding of serum London to looped/cyclic peptides of protein X1 of SARS-CoV Urbani: 0.3
  Binding of serum SARS-green to linear peptides of protein X1 of SARS-CoV Urbani: 0.4
  Binding of serum SARS-green to looped/cyclic peptides of protein X1 of SARS-CoV Urbani: 0.2
  Binding of serum SARS-yellow to linear peptides of protein X1 of SARS-CoV Urbani: 0.6
  Binding of serum SARS-yellow to looped/cyclic peptides of protein X1 of SARS-CoV Urbani: 0.4
[2]
  Binding of Control Serum Blood-Bank to Looped peptides: 0.8
  Binding of Control serum Blood-bank to linear peptides: 0.8
  Binding of Control serum LUMC to linear peptides: 0.7
  Binding of Control serum LUMC to looped peptides: 0.7
[3]
  Binding of a rabbit serum to linear peptides: 0.1
  Binding of a rabbit serum to looped peptides: 0.6

## THRMCKYTQSTALQE
[1]
  Binding of serum 1a to linear peptides of protein X2: 0.9
  Binding of serum 1a to looped/cyclic peptides of protein X2 of SARS-CoV Urbani: 0.5
  Binding of serum 1b to linear peptides of protein X2: 0.8
  Binding of serum 1b to looped/cyclic peptides of protein X2 of SARS-CoV Urbani: 0.6
  Binding of serum 2 to linear peptides of protein X2: 0.5
  Binding of serum 2 to looped/cyclic peptides of protein X2 of SARS-CoV Urbani: 0.2
  Binding of serum 6 to linear peptides of protein X2: 0.6
  Binding of serum 6 to looped/cyclic peptides of protein X2 of SARS-CoV Urbani: 0.2
  Binding of serum 37 to linear peptides of protein X2: 0.7
  Binding of serum 37 to looped/cyclic peptides of protein X2 of SARS-CoV Urbani: 0.3
  Binding of serum 62 to linear peptides of protein X2: 0.8
  Binding of serum 62 to looped/cyclic peptides of protein X2 of SARS-CoV Urbani: 0.4
  Binding of serum London to linear peptides of protein X2: 0.7
  Binding of serum London to looped/cyclic peptides of protein X2 of SARS-CoV Urbani: 0.2
  Binding of serum SARS-green to linear peptides of protein X2: 0.6
  Binding of serum SARS-green to looped/cyclic peptides of protein X2 of SARS-CoV Urbani: 0.5
  Binding of serum SARS-yellow to linear peptides of protein X2: 0.8
  Binding of serum SARS-yellow to looped/cyclic peptides of protein X2 of SARS-CoV Urbani: 0.3
[2]
  Binding of Control Serum Blood-Bank to Looped peptides: 0.5
  Binding of Control serum Blood-bank to linear peptides: 0.9
  Binding of Control serum LUMC to linear peptides: 0.7
  Binding of Control serum LUMC to looped peptides: 0.4
[3]
  Binding of a rabbit serum to linear peptides: 0.3
  Binding of a rabbit serum to looped peptides: 0.3

## TIAEILIIIMRTFRI
[1]
  Binding of serum 1a to linear peptides of protein X3 of SARS-CoV Urbani: 0.8
  Binding of serum 1a to looped/cyclic peptides of protein X3 of SARS-CoV Urbani: 0.7
  Binding of serum 1b to linear peptides of protein X3 of SARS-CoV Urbani: 0.3
  Binding of serum 1b to looped/cyclic peptides of protein X3 of SARS-CoV Urbani: 0.4
  Binding of serum 2 to linear peptides of protein X3 of SARS-CoV Urbani: 0.7
  Binding of serum 2 to looped/cyclic peptides of protein X3 of SARS-CoV Urbani: 0.6
  Binding of serum 6 to linear peptides of protein X3 of SARS-CoV Urbani: 0.7
  Binding of serum 6 to looped/cyclic peptides of protein X3 of SARS-CoV Urbani: 0.4
  Binding of serum 37 to linear peptides of protein X3 of SARS-CoV Urbani: 0.6
  Binding of serum 37 to looped/cyclic peptides of protein X3 of SARS-CoV Urbani: 0.3
  Binding of serum 62 to linear peptides of protein X3 of SARS-CoV Urbani: 0.7
  Binding of serum 62 to looped/cyclic peptides of protein X3 of SARS-CoV Urbani: 0.4
  Binding of serum London to linear peptides of protein X3 of SARS-CoV Urbani: 0.7
  Binding of serum London to looped/cyclic peptides of protein X3 of SARS-CoV Urbani: 0.2
  Binding of serum SARS-green to linear peptides of protein X3 of SARS-CoV Urbani: 0.3
  Binding of serum SARS-green to looped/cyclic peptides of protein X3 of SARS-CoV Urbani: 0.4
  Binding of serum SARS-yellow to linear peptides of protein X3 of SARS-CoV Urbani: 0.3
  Binding of serum SARS-yellow to looped/cyclic peptides of protein X3 of SARS-CoV Urbani: 0.5
[2]
  Binding of Control Serum Blood-Bank to Looped peptides of the protein X3 of SARS-CoV Urbani: 1.1
  Binding of Control serum Blood-bank to linear peptides of the protein X3 of SARS-CoV Urbani: 0.8
  Binding of Control serum LUMC to linear peptides of the protein X3 of SARS-CoV Urbani: 0.6
  Binding of Control serum LUMC to looped peptides of the protein X3 of SARS-CoV Urbani: 0.7
[3]
  Rabbit serum linear peptides: 0.2
  Rabbit serum looped peptides: 0.0

## TIDGSSGVANPAMDP
[1]
  Binding of serum 1a to linear peptides of protein X1 of SARS-CoV Urbani: 0.6
  Binding of serum 1a to looped/cyclic peptides of protein X1 of SARS-CoV Urbani: 0.5
  Binding of serum 1b to linear peptides of protein X1 of SARS-CoV Urbani: 0.6
  Binding of serum 1b to looped/cyclic peptides of protein X1 of SARS-CoV Urbani: 0.4
  Binding of serum 2 to linear peptides of protein X1 of SARS-CoV Urbani: 0.6
  Binding of serum 2 to looped/cyclic peptides of protein X1 of SARS-CoV Urbani: 0.4
  Binding of serum 6 to linear peptides of protein X1 of SARS-CoV Urbani: 0.6
  Binding of serum 6 to looped/cyclic peptides of protein X1 of SARS-CoV Urbani: 0.3
  Binding of serum 37 to linear peptides of protein X1 of SARS-CoV Urbani: 0.6
  Binding of serum 37 to looped/cyclic peptides of protein X1 of SARS-CoV Urbani: 0.3
  Binding of serum 62 to linear peptides of protein X1 of SARS-CoV Urbani: 0.6
  Binding of serum 62 to looped/cyclic peptides of protein X1 of SARS-CoV Urbani: 0.3
  Binding of serum London to linear peptides of protein X1 of SARS-CoV Urbani: 0.4
  Binding of serum London to looped/cyclic peptides of protein X1 of SARS-CoV Urbani: 0.2
  Binding of serum SARS-green to linear peptides of protein X1 of SARS-CoV Urbani: 0.4
  Binding of serum SARS-green to looped/cyclic peptides of protein X1 of SARS-CoV Urbani: 0.3
  Binding of serum SARS-yellow to linear peptides of protein X1 of SARS-CoV Urbani: 0.3
  Binding of serum SARS-yellow to looped/cyclic peptides of protein X1 of SARS-CoV Urbani: 0.2
[2]
  Binding of Control Serum Blood-Bank to Looped peptides: 0.4
  Binding of Control serum Blood-bank to linear peptides: 0.4
  Binding of Control serum LUMC to linear peptides: 0.6
  Binding of Control serum LUMC to looped peptides: 0.4
[3]
  Binding of a rabbit serum to linear peptides: 0.1
  Binding of a rabbit serum to looped peptides: 0.4
